# Test results taken from patent publication US9040501B2, “Compositions and methods for treating cancer” (Eisai Inc., priority 2009, dated 2015).
# Where two headings read alike, the source gives them in different places.
# Experiments:
# CDA = CDA (Homo sapiens (Human), UniProt P32320); conditions: deamination by CDA; Chabot et al. 1983, Bouffard et al. 1993; cited from earlier work
# CDA from human liver = CDA from human liver (Homo sapiens (Human), UniProt P32320); conditions: Wentworth and Wolfenden 1975; cited from earlier work
# cytidine deaminase (CDA) = cytidine deaminase (CDA) (Homo sapiens (Human), UniProt P32320); experiment: Effect of ER-876437 on the half-life of gemcitabine in the presence of CDA in Tris-HCl buffer at 37° C.; assay type: biochemical; design: half-life: dose or concentration left out as unconfirmed; conditions: for half-life: cytidine deaminase (CDA) in Tris-HCl buffer, read-out: Estimated T1/2 of gemcitabine; for reduction in gemcitabine concentration: gemcitabine alone, absence of CDA, Tris-HCl buffer at 37° C., 10 hours
# Description: This Example employed a Phenomenex Luna C18(2) HPLC column (100 Å 4.6×250 mm 5 μm). The solvent delivery system employed an HPLC quaternary pump, low pressure mixing. An autosampler having a variable loop, 0.1 to 100 μL range and temperature controlled thermostat was used. The UV detector can employ a dual wavelength detector, a diode array detector, a variable wavelength detector or equivalent, and can be recorded using chromatographic software (e.g., Waters Empower 2 Build 2154, Agilent ChemStation software version A.09.03 or higher for HPLC or equivalent). The analytical balance employed was capable of weighing ±0.1 mg. Degassed HPLC grade water and degassed HPLC grade acetonitrile were used as solvents for the mobile phases.
# Gemcitabine Standard Control: 0.2 mM gemcitabine control was prepared by weighing […] of gemcitabine in a 10 mL volumetric flask. […] Solution was labeled as gemcitabine stock solution.
# [1] = tested on: A2780 human ovarian cancer xenograft; experiment: In vivo efficacy study in A2780 human ovarian cancer xenograft model; design: species or system female nude mice; conditions: qdx5 for two weeks
# Description: Animals were dosed daily from Monday to Friday for two weeks.
# Female nude mice (NU/NU, strain code 088, 6 weeks old, Charles River Laboratory) were implanted subcutaneously with 5×10^6 A2780 cancer cells per mouse. On day 13 when the tumors were approximately 150 mm^3, treatment started as described in Table 9.
# Tumor volume and regressions were followed over time. Tumor volume was calculated by (length×width^2)/2. Note that a complete regression was defined as no measurable tumor for at least 3 consecutive measurements; while a partial regression was defined as tumor shrinkage to equal or less than 50% of original tumor volume for 3 consecutive measurements. Tumor growth delay (TGD) was defined as the median number of days for the control and treatment groups to grow to 342.14 mm^3. The average tumor volume on the first day of treatment (day 13) is 171.07 mm^3.
# cytidine deaminase (CDA), sequence (P32320 whole entry): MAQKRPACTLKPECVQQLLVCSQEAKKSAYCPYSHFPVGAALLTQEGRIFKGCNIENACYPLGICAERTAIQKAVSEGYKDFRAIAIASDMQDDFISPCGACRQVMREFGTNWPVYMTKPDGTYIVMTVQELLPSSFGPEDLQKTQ
# CDA, sequence (P32320 whole entry): as above
# CDA from human liver, sequence (P32320 whole entry): as above
Compound,Km (CDA) [µM],Km (CDA from human liver) [mM],Estimated T1/2 of gemcitabine (cytidine deaminase (CDA); Gemcitabine with CDA in Tris-HCl buffer at 37° C.) [min],"half-life (cytidine deaminase (CDA); pH 7.4, Gemcitabine with CDA and ER-876437 in Tris-HCl buffer at 37° C.) [min]","half-life (cytidine deaminase (CDA); pH 7.4, Gemcitabine with CDA in Tris-HCl buffer at 37° C.) [min]",reduction in gemcitabine concentration (cytidine deaminase (CDA)),reduction in gemcitabine concentration (cytidine deaminase (CDA); listed as Gemcitabine),"concentration of gemcitabine (cytidine deaminase (CDA); presence of CDA, within 1 hour) [% control]",regressions or tumor free survivors at day 41 ([1]; gemcitabine 1 mg/kg PO alone or ER-876437 10 mg/kg PO alone),effect on tumor growth (FIG. 3) ([1]; gemcitabine 1 mg/kg PO and/or ER-876437 10 mg/kg PO (30 minutes prior)),"TGD (tumor growth delay) ([1]; gemcitabine 1 mg/kg PO and/or ER-876437 10 mg/kg PO (30 minutes prior), delay vs vehicle to reach 342.14 mm^3) [days]"
"Nc1ncn([C@@H]2O[C@H](CO)[C@@H](O)[C@H]2O)c(=O)n1 [5-azacytidine, 4-Amino-1-(β-D-ribofuranosyl)-1,3,5-triazin-2(1H)-one]",216 ± 51,0.058,–,–,–,–,–,–,–,–,–
Nc1cnn([C@@H]2O[C@H](CO)[C@@H](O)[C@H]2O)c(=O)n1 [6-azacytidine],–,4.2,–,–,–,–,–,–,–,–,–
"Nc1ccn([C@@H]2O[C@H](CO)[C@@H](O)C2(F)F)c(=O)n1 [gemcitabine, 2′-deoxy-2′,2′-difluorocytidine]",95.7 ± 8.4,–,<35,> 780,< 35,no reduction,did not show any degradation,~0,no regressions or tumor free survivors,limited efficacy,2
